# From ChEMBL document CHEMBL4321844, “Rational Design and Optimization of a Novel Class of Macrocyclic Apoptosis Signal-Regulating Kinase 1 Inhibitors” (J Med Chem, 2019)
# Assay: Unbound brain to plasma concentration ratio, Kp of the compound in rat at 1 mg/kg, iv for 4 hrs by LC-MS/MS analysis
# Format: ADME, organism-based
# Conditions: brain and plasma, read-out: K(p,uu,brain)
row,SMILES,Kp uu at 4 h
1,CN(C)CCn1cc(-c2ccc3c(c2)C(=O)Nc2cccc(n2)-c2nncn2CCCCO3)cn1,1
2,C[C@@H]1CCOc2cc(F)ccc2C(=O)Nc2cccc(n2)-c2nncn2C1,0.17
3,C[C@H]1CCCOc2cc(F)ccc2C(=O)Nc2cccc(n2)-c2nncn21,0.09
4,Cc1cn(-c2ccc3c(c2)C(=O)Nc2cccc(n2)-c2nncn2CCCCO3)cn1,< 0.1
5,C[C@@H]1CCOc2cc(F)c(-c3cnn(CCN(C)C)c3)cc2C(=O)Nc2cccc(n2)-c2nncn2C1,< 0.1
